Experimental data from patent publication US5549903A, “Microencapsulated composition containing chlorpyrifos or endosulfsan” (priority 1994, dated 1996).

Assays:
honey bees [1] = settings: technical chlorpyrifos, comparison value; cited from earlier work
honey bees [2] = settings: technical chlorpyrifos, comparison value; cited from earlier work; remark: listed apart in the source
[3] = Stability of unprotected chlorpyrifos to UV/visible light; format: physicochemical; settings: 68 hours
Procedure: Unprotected chlorpyrifos was irradiated by an ultraviolet/visible light lamp for 68 hours. The stability versus the wavelength of the light is summarized as follows: […]

rats = settings: technical chlorpyrifos; cited from earlier work
mice = settings: technical material; cited from earlier work
[4] = Stability of endosulfan to irradiation; format: physicochemical; settings: 100 hours at 310±5 nanometers and 475± nanometers
Description: Details of the stability of chlorpyrifos are listed in Example 2.

SMILES	LD50 oral (honey bees [1])	LD50 contact (honey bees [2])	Extent of Degradation ([3]; 313 ± 5 nm)	Extent of Degradation ([3]; 365 ± 5 nm)	Extent of Degradation ([3]; 404 ± 5 nm)	Extent of Degradation ([3]; 436 ± 5 nm)	LD50 (acute oral) (rats)	LD50 (mice)	decomposition after irradiation [4]
CCOP(=S)(OCC)Oc1nc(Cl)c(Cl)cc1Cl [chlorpyrifos, O,O-diethyl-O-(3,5,6-trichloro-2-pyridyl)-phosphorathio-ate]	0.25 μg/bee	0.059 μ/bee	Total degradation	Low degradation	Low degradation	Medium degradation	168 mg/kg		
O=S1OCC2C(CO1)C1(Cl)C(Cl)=C(Cl)C2(Cl)C1(Cl)Cl (stereo not drawn) [endosulfan, 6,7,8,9,10-hexachloro-1,5-5a,9a tetryhydro-6,9-methano-2,4,3-benzodioxathipia-3-oxide]								30 mg/kg	decomposed
